Results reported in ChEMBL document CHEMBL3862025, “Novel substituted hydrazono indolo[2,1-b]quinazoline-6,12-dione analogues as cytostatic agents: Synthesis, crystal structure, biological evaluation and molecular docking studies” (Bioorg Med Chem Lett, 2016).
Converted amounts (≈) assume the structure as drawn.

Tests used:
[1] = Cytotoxicity against human A549 cells assessed as inhibition of cell viability after 48 hrs by MTT assay; type: functional, cell-based; conditions: A549, 48 h
[2] = Cytotoxicity against human MCF7 cells assessed as inhibition of cell viability after 48 hrs by MTT assay; type: functional, cell-based; conditions: MCF7, 48 h
[3] = test system: Escherichia coli; test: Antibacterial activity against Escherichia coli after 24 hrs by broth dilution method; type: functional
[4] = test system: Bacillus subtilis; test: Antibacterial activity against Bacillus subtilis after 24 hrs by broth dilution method; type: functional
[5] = test system: Klebsiella pneumoniae; test: Antibacterial activity against Klebsiella pneumoniae after 24 hrs by broth dilution method; type: functional
[6] = Cytotoxicity against human HeLa cells assessed as inhibition of cell viability after 48 hrs by MTT assay; type: functional, cell-based
[7] = Antifungal activity against Penicillium notatum by agar streak dilution method; type: functional; conditions: Penicillium chrysogenum
[8] = test system: Staphylococcus aureus; test: Antibacterial activity against Staphylococcus aureus after 24 hrs by broth dilution method; type: functional
[9] = test system: Aspergillus niger; test: Antifungal activity against Aspergillus niger by agar streak dilution method; type: functional
[10] = Cytotoxicity against HEK293 cells assessed as inhibition of cell viability after 48 hrs by MTT assay; type: toxicity, cell-based; conditions: human

Row | Compound | IC50 [1] [µM] | IC50 [2] [µM] | MIC [3] [µg/mL] | MIC [4] [µg/mL] | MIC [5] [µg/mL] | IC50 [6] [µM] | MIC [7] [µg/mL] | MIC [8] [µg/mL] | MIC [9] [µg/mL] | IC50 at 48 h [10] [µM]
1 | CC(O)=CC(C)=N/N=C1/c2cc(Br)ccc2-n2c1nc1ccccc1c2=O | 31.1 | 33 | 50 (≈ 118 µM) | 50 (≈ 118 µM) | > 100 | 31.2 | > 100 | 50 (≈ 118 µM) | > 100 | 
2 | CN[C@@H]1[C@H](O[C@H]2[C@H](O[C@H]3[C@H](O)[C@@H](O)[C@H](N=C(N)N)[C@@H](O)[C@@H]3N=C(N)N)O[C@@H](C)[C@]2(O)C=O)O[C@@H](CO)[C@H](O)[C@H]1O [STREPTOMYCIN] |  |  | 6.25 (≈ 10.7 µM) | 3.12 (≈ 5.37 µM) | 1.56 (≈ 2.69 µM) |  |  | 6.25 (≈ 10.7 µM) |  | 
3 | O=c1c2ccccc2nc2n1-c1ccc(Br)cc1/C2=N/N=C1/C=C(O)CCC1 | 41.7 | 43.9 | 12.5 (≈ 28.7 µM) | 3.12 (≈ 7.18 µM) | 6.25 (≈ 14.4 µM) | 35.8 | 6.25 (≈ 14.4 µM) | 6.25 (≈ 14.4 µM) | 6.25 (≈ 14.4 µM) | 
4 | O=c1c2ccccc2nc2n1-c1ccc(Br)cc1/C2=N/N=C1/C=C(O)c2ccccc21 | 20.4 | 15.9 | 3.12 (≈ 6.66 µM) | 1.56 (≈ 3.33 µM) | 3.12 (≈ 6.66 µM) | 17 | 6.25 (≈ 13.3 µM) | 1.56 (≈ 3.33 µM) | 3.12 (≈ 6.66 µM) | 55.2
5 | C/C(O)=C/C(C)=N/N=C1/c2ccccc2-n2c1nc1ccccc1c2=O | 43.9 | 42.1 | 50 (≈ 145 µM) | 25 (≈ 72.6 µM) | 12.5 (≈ 36.3 µM) | 44.8 | > 100 | 25 (≈ 72.6 µM) | > 100 | 
6 | O=c1c2ccccc2nc2n1-c1ccccc1/C2=N/N=C1/C=C(O)CCC1 | 29.8 | 27.9 | 6.25 (≈ 17.5 µM) | 3.12 (≈ 8.77 µM) | 12.5 (≈ 35.1 µM) | 23.9 | 25 (≈ 70.1 µM) | 6.25 (≈ 17.5 µM) | 12.5 (≈ 35.1 µM) | 
7 | COc1ccc2c(c1)/C(=N/N=C1/C=C(O)CC(C)(C)C1)c1nc3ccccc3c(=O)n1-2 | 67.8 | 68.7 | > 100 | > 100 | > 100 | 56.9 | > 100 | > 100 | 100 (≈ 241 µM) | 
8 | CC(C=C(O)c1ccccc1)=N/N=C1/c2ccccc2-n2c1nc1ccccc1c2=O | 17.6 | 26.2 | > 100 | > 100 | > 100 | 25.2 | 25 (≈ 61.5 µM) | > 100 | 25 (≈ 61.5 µM) | 68.1
9 | COc1ccc2c(c1)/C(=N/N)c1nc3ccccc3c(=O)n1-2 | 31.2 | 32.3 | > 100 | > 100 | > 100 | 29.2 | 50 (≈ 171 µM) | > 100 | > 100 | 
10 | CC(C=C(O)c1ccccc1)=N/N=C1/c2cc(Br)ccc2-n2c1nc1ccccc1c2=O | 9.18 | 7.14 | > 100 | > 100 | > 100 | 10.6 | 25 (≈ 51.5 µM) | > 100 | 25 (≈ 51.5 µM) | 46.1
11 | O=c1c2ccccc2nc2n1-c1ccccc1/C2=N/N=C1/C=C(O)c2ccccc21 | 56.4 | 50.3 | 12.5 (≈ 32 µM) | 6.25 (≈ 16 µM) | 1.56 (≈ 4 µM) | 49.4 | 12.5 (≈ 32 µM) | 3.12 (≈ 8 µM) | 6.25 (≈ 16 µM) | 
12 | COc1ccc2c(c1)/C(=N/N=C1/C=C(O)CCC1)c1nc3ccccc3c(=O)n1-2 | 36 | 32.7 | 12.5 (≈ 32.3 µM) | 6.25 (≈ 16.2 µM) | 6.25 (≈ 16.2 µM) | 32.1 | 12.5 (≈ 32.3 µM) | 3.12 (≈ 8.09 µM) | 100 (≈ 259 µM) | 
13 | COc1ccc2c(c1)/C(=N/N=C(C)C=C(C)O)c1nc3ccccc3c(=O)n1-2 | 46.7 | 47.9 | 50 (≈ 134 µM) | 50 (≈ 134 µM) | 50 (≈ 134 µM) | 49.1 | 100 (≈ 267 µM) | 12.5 (≈ 33.4 µM) | > 100 | 
14 | CC1(C)CC(O)=C/C(=N/N=C2/c3cc(Br)ccc3-n3c2nc2ccccc2c3=O)C1 | 46.3 | 40 | > 100 | > 100 | > 100 | 39.8 | > 100 | > 100 | 100 (≈ 216 µM) | 
15 | CC(=O)N1CCN(c2ccc(OCC3COC(Cn4ccnc4)(c4ccc(Cl)cc4Cl)O3)cc2)CC1 (configuration not stated) [KETOCONAZOLE] |  |  |  |  |  |  | 3.12 (≈ 5.88 µM) |  | 3.12 (≈ 5.88 µM) | 
16 | CC(O)=CC(C)=N/N=C1/c2cc(C)cc(C)c2-n2c1nc1ccccc1c2=O | 46.6 | 44.5 | 25 (≈ 67.1 µM) | 12.5 (≈ 33.6 µM) | 6.25 (≈ 16.8 µM) | 42 | 100 (≈ 269 µM) | 12.5 (≈ 33.6 µM) | 100 (≈ 269 µM) | 
17 | COc1ccc2c(c1)/C(=N/N=C1/C=C(O)c3ccccc31)c1nc3ccccc3c(=O)n1-2 | 63.5 | 60.9 | 6.25 (≈ 14.9 µM) | 3.12 (≈ 7.43 µM) | 12.5 (≈ 29.7 µM) | 62.3 | 50 (≈ 119 µM) | 1.56 (≈ 3.72 µM) | 50 (≈ 119 µM) | 
18 | CC1(C)CC(O)=C/C(=N/N=C2/c3ccccc3-n3c2nc2ccccc2c3=O)C1 | 66.2 | 68.8 | 50 (≈ 130 µM) | 50 (≈ 130 µM) | 12.5 (≈ 32.5 µM) | 59.3 | 100 (≈ 260 µM) | 50 (≈ 130 µM) | 100 (≈ 260 µM) | 
19 | N/N=C1/c2cc(Br)ccc2-n2c1nc1ccccc1c2=O | 23.1 | 23.2 | > 100 | 50 (≈ 147 µM) | 25 (≈ 73.3 µM) | 22.1 | 50 (≈ 147 µM) | > 100 | 50 (≈ 147 µM) | 
20 | COc1ccc2c(c1)/C(=N/N=C(C)C=C(O)c1ccccc1)c1nc3ccccc3c(=O)n1-2 | 29.3 | 31.1 | > 100 | > 100 | > 100 | 33.7 | 50 (≈ 115 µM) | > 100 | 25 (≈ 57.3 µM) | 
21 | CCO/C(O)=C/C(C)=N/N=C1/c2cc(Br)ccc2-n2c1nc1ccccc1c2=O | 40 | 36.6 | 6.25 (≈ 13.8 µM) | 3.12 (≈ 6.89 µM) | 12.5 (≈ 27.6 µM) | 36.7 | 3.12 (≈ 6.89 µM) | 1.56 (≈ 3.45 µM) | 6.25 (≈ 13.8 µM) | 
22 | CCO/C(O)=C/C(C)=N/N=C1/c2ccccc2-n2c1nc1ccccc1c2=O | 51.1 | 50.6 | 12.5 (≈ 33.4 µM) | 6.25 (≈ 16.7 µM) | 12.5 (≈ 33.4 µM) | 42.9 | 25 (≈ 66.8 µM) | 6.25 (≈ 16.7 µM) | 12.5 (≈ 33.4 µM) | 
23 | N/N=C1/c2ccccc2-n2c1nc1ccccc1c2=O | 28.7 | 25.2 | > 100 | > 100 | 50 (≈ 191 µM) | 25.6 | > 100 | 50 (≈ 191 µM) | 50 (≈ 191 µM) | 
24 | CCO/C(O)=C/C(C)=N/N=C1/c2cc(OC)ccc2-n2c1nc1ccccc1c2=O | 56.2 | 54.5 | 12.5 (≈ 30.9 µM) | 6.25 (≈ 15.5 µM) | 3.12 (≈ 7.73 µM) | 58.2 | 50 (≈ 124 µM) | 6.25 (≈ 15.5 µM) | 50 (≈ 124 µM) | 
